# pIC50: −log10 of the molar value. Where “and” joins values, the source holds several entries; their conditions need not be identical. Identical values can stand only once.
# Experiments:
# IDO1 enzyme = target: T1, IDO1 enzyme (Homo sapiens, UniProt P14902); test: IDO1 enzyme inhibition assay (hIDO assay kit, NFK-green); conditions: IDO1 enzyme 25 nM, tryptophan 100 μM, top concentration 30 μM; read-out: IDO1 Biochemical assay IC50
# T1 construct: purchased Netherlands Translational Research Center B.V. NTRC-hIDO-1K
# T1 sequence (P14902 whole entry): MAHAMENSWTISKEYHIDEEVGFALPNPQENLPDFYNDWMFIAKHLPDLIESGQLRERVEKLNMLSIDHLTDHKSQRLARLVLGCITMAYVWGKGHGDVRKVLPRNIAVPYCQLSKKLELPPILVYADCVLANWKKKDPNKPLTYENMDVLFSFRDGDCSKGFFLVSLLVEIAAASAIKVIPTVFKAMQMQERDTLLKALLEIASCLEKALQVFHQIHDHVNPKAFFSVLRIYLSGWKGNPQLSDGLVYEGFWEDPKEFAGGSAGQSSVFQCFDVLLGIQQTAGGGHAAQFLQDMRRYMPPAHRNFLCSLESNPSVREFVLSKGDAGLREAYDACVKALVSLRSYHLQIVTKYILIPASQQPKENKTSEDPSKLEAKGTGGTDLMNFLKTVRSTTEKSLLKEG
# Method: The effect of compounds on IDO1 enzymatic activity was assessed by use of a hIDO assay kit (Netherlands Translational Research Center B.V., Cat #NTRC-hIDO-1K). IDO1 enzyme and tryptophan substrate are diluted in assay buffer. Compounds are tested at 8 consecutive 3-fold dilutions starting from 30 μM. 267 nL of compound is added per well of a 384-well plate followed by addition of 10 μL of assay buffer. IDO1 enzyme is added at a final concentration of 25 nM and pre-incubated for 30 min at room temperature in the dark. Tryptophan substrate solution is then added at final concentration of 100 μM to all wells and the plate incubated for 60 min at RT in the dark. Finally NFK-green reagent is added at ⅕ of total reaction volume and incubated for 4 h at RT in the dark. After incubation fluorescence is measured at Ex405 nm-Em535 nm using EnVision plate reader.
# (§1) IC50 values are determined using GraphPad Prism software 5.04 for Windows by plotting percent of inhibition against log 10 concentrations of compounds using a four-parametric sigmoidal curve with a variable slope.
# SK-OV-3 cells = test: Effect of compounds on tryptophan catabolism in SK-OV-3 cell line (inhibition of kynurenine production, LC-MS/MS); assay type: cell-based; conditions: Homo sapiens, SK-OV-3, 24 h, SK-OV-3 cell line, 24 h incubation, kynurenine in supernatant by LC-MS/MS; read-out: IC50 Ranges (ic50 values for inhibition of Kynurenine production)
# In short: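 Kynurenine in supernatants quantified by LC-MS/MS after 24 h compound exposure (37 °C; top 30 μM, eight 3-fold steps, duplicate) in DMEM F-12 containing 6 mg/mL L-tryptophan. Cells pre-plated overnight in McCoy's 5A with 10% FBS. Viability checked in parallel by ATP luminescence.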
# TDO2 enzyme = target: T2, TDO2 enzyme (Homo sapiens, UniProt P48775); test: TDO2 enzyme inhibition assay (hTDO2 assay kit, NFK-green); conditions: TDO2 enzyme 50 nM, tryptophan 200 μM, top concentration 30 μM; read-out: TDO2 Biochemical assay IC50
# T2 construct: purchased Netherlands Translational Research Center B.V. NTRC-hTDO-1K
# T2 sequence (P48775 whole entry): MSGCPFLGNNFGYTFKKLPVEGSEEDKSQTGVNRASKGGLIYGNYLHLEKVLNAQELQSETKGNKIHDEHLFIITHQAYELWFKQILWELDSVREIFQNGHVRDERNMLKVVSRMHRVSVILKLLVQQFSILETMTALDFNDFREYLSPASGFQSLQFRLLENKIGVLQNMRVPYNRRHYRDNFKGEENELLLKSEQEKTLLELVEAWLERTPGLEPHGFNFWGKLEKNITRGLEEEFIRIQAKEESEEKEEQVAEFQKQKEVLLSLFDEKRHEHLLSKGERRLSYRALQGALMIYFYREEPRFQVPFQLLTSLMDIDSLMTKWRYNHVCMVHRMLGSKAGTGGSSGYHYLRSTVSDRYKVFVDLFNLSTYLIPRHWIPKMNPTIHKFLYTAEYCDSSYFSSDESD
# Method: The effect of compounds on TDO2 enzymatic activity was assess by use of an hTDO2 assay kit (Netherlands Translational Research Center B.V., Cat #NTRC-hTDO-1K). TDO2 enzyme and tryptophan substrate are diluted in assay buffer. Compounds are tested at 8 consecutive 3-fold dilutions starting from 30 μM. 267 nL of compound is added per well of a 384-well plate followed by addition of 10 μL of assay buffer. TDO2 enzyme is added at a final concentration of 50 nM and pre-incubated for 60 min at room temperature in the dark. Tryptophan substrate solution is then added at final concentration of 200 μM to all wells and the plate incubated for 15 min at RT in the dark. Finally NFK-green reagent is added at ⅕ of total reaction volume and incubated for 4 h at RT in the dark. After incubation fluorescence is measured at Ex405 nm-Em535 nm using EnVision plate reader.
# as §1
# [1] = tested on: monocyte-derived dendritic cells; test: Cell viability / cytotoxicity in monocyte-derived dendritic cells (ATP, CellTiter Glo); assay type: cell-based, human; conditions: 24 h, unit assumed
# Method: (§2) Peripheral blood mononuclear cells are isolated from buffy coats from healthy volunteers by Lymphoprep density gradient centrifugation, followed by lysis of residual erythrocytes with isotonic buffer solution of ammonium chloride. CD14+ cells are isolated by positive selection using MACS® technology and CD14 MicroBeads (Miltenyi Biotec) according to manufacturer's instructions. The isolated monocytes are differentiated into dendritic cells by incubation for 5 days in RPMI-1640 medium supplemented with 10% fetal bovine serum (FBS), 50 ng/mL GM-CSF and 35 ng/mL IL-4. After 5 days the DCs are seeded in 96-well plates in DMEM supplemented with 10% charcoal stripped FBS, GM-CSF and IL-4. The following day cells are triggered with LPS and IFNγ. After 24 h of incubation medium is replaced with DMEM F-12 medium supplemented with 6 mg/mL L-tryptophan and 10% charcoal stripped FBS. Compounds are added to the cells and incubated for 24 h at 37° C., 5% CO2, 95% humidity. Compounds are tested at 7 consecutive 4-fold dilutions starting from 30 μM in duplicate.
# (§3) At the end of incubation concentration of kynurenine in cell supernatants is determined by LC-MS/MS. In parallel, cell viability is assessed by measurement of ATP by use of CellTiter Glo assay (Promega) according to manufacturer's protocol.
# Cell viability results are analysed in Microsoft Excel and expressed as fold change over untreated control.
# [2] = tested on: monocyte-derived dendritic cells; test: Effect of compounds on tryptophan catabolism in monocyte-derived dendritic cells (kynurenine production); assay type: cell-based; conditions: Homo sapiens, Dendritic cell; dendritic cells triggered with LPS and IFNγ, 24 h with compound
# Method: as §2, §3
# Inhibition of Kyn production is calculated using the following formula:
# (1−(Kyn conc. cmpd.−Kyn conc. medium)/(Kyn conc. medium with cells−Kyn conc. medium))·100
# IC50 values are determined using GraphPad Prism software 5.04 for Windows, by plotting percent of inhibition against log 10 concentrations of compounds using a four-parametric sigmoidal curve with a variable slope.
smiles,measurement,setting,value
"Cc1ccc(CN(C(=O)Nc2ccc(C3=CCN(C(=O)OC(C)(C)C)C3)cc2)C2CCCC2)o1 [Compound 158, tert-butyl 3-[4-[[cyclopentyl-[(5-methyl-2-furyl)methyl]carbamoyl]amino]phenyl]-2,5-dihydropyrrole-1-carboxylate]",pIC50,IDO1 enzyme,< 4.52
same,pIC50,SK-OV-3 cells,6.00 to 6.30
same,pIC50,TDO2 enzyme,5.19
"Cc1ccc(CN(C(=O)Nc2ccc(C#N)cc2)C2CCC2)o1 [Compound 84, 3-(4-cyanophenyl)-1-cyclobutyl-1-[(5-methyl-2-furyl)methyl]urea]",Cell viability at 30 uM (% of untreated control),[1],108%
same,pIC50,[2],6.74
same,pIC50,SK-OV-3 cells,> 7.00
"Cn1nccc1N(Cc1ccc2ncsc2c1)C(=O)Nc1ccc(C#N)cc1 [Compound 276, 1-(1,3-benzothiazol-6-ylmethyl)-3-(4-cyanophenyl)-1-(2-methyl-iH-pyrazol-3-yl) urea]",pIC50,IDO1 enzyme,< 4.52
same,pIC50,SK-OV-3 cells,5.30 to 6.00
"Cc1ccc(CN(C(=O)Nc2ccc(C#N)cc2)c2ccnn2C)o1 [Compound 215, 3-(4-cyanophenyl)-1-[(5-methyl-2-furyl)methyl]-1-(2-methylpyrazol-3-yl)urea]",pIC50,IDO1 enzyme,< 4.52
same,pIC50,SK-OV-3 cells,< 5.30
"N#Cc1ccc(NC(=O)N(Cc2cn3ccsc3n2)C2CCC2)cc1 [Compound 270, 3-(4-cyanophenyl)-1-cyclobutyl-1-(imidazo[2,1-b]thiazol-6-ylmethyl)urea]",pIC50,IDO1 enzyme,< 4.52
same,pIC50,SK-OV-3 cells,6.00 to 6.30
"Cc1ccc(CN(C(=O)Nc2ccc(Cl)cc2)c2conc2C)o1 [Compound 277, 3-(4-chlorophenyl)-1-[(5-methyl-2-furyl)methyl]-1-(3-methylisoxazol-4-yl)urea]",pIC50,IDO1 enzyme,< 4.52
same,pIC50,SK-OV-3 cells,> 7.00
"O=C(Nc1ccc(F)c(F)c1)N(Cc1ccc(F)c(C(F)(F)F)c1)C1CCCC1 [Compound 139, 1-cyclopentyl-3-(3,4-difluorophenyl)-1-[[4-fluoro-3-(trifluoromethyl)phenyl]methyl]urea]",Cell viability at 30 uM (% of untreated control),[1],77%
same,pIC50,[2],6.57
same,pIC50,SK-OV-3 cells,> 7.00
"Cc1ccc(CN(C(=O)Nc2ccc(C#CC(C)(C)O)cc2)C2CCCC2)o1 [Compound 109, 1-cyclopentyl-3-[4-(3-hydroxy-3-methyl-but-1-ynyl)phenyl]-1-[(5-methyl-2-furyl)methyl]urea]",pIC50,IDO1 enzyme,< 4.52
same,pIC50,SK-OV-3 cells,5.30 to 6.00
same,pIC50,TDO2 enzyme,5.22
"Cc1ccc(CN(C(=O)NCCc2ccccc2)C2CCCC2)s1 [Compound 26, 1-cyclopentyl-1-[(5-methyl-2-thienyl)methyl]-3-(2-phenylethyl)urea]",Cell viability at 30 uM (% of untreated control),[1],19%
same,pIC50,[2],7.00
same,pIC50,SK-OV-3 cells,> 7.00
"N#Cc1cc(CN(C(=O)Nc2ccc(Cl)cc2)C2CCCC2)ccc1F [Compound 146, 3-(4-chlorophenyl)-1-[(3-cyano-4-fluoro-phenyl)methyl]-1-cyclopentyl-urea]",Cell viability at 30 uM (% of untreated control),[1],103%
same,pIC50,[2],6.92
same,pIC50,SK-OV-3 cells,> 7.00
"Cc1ccc(CN(C(=O)Nc2ccc(C#CCO)cc2)C2CCCC2)o1 [Compound 111, 1-cyclopentyl-3-[4-(3-hydroxyprop-1-ynyl)phenyl]-1-[(5-methyl-2-furyl)methyl]urea]",pIC50,IDO1 enzyme,< 4.52
same,pIC50,SK-OV-3 cells,> 7.00
same,pIC50,TDO2 enzyme,5.32 and 5.66
"O=C(Nc1ccc(Cl)cc1)N(Cc1cn2ccsc2n1)C1CCC1 [Compound 269, 3-(4-chlorophenyl)-1-cyclobutyl-1-(imidazo[2,1-b]thiazol-6-ylmethyl)urea]",pIC50,IDO1 enzyme,< 4.52
same,pIC50,SK-OV-3 cells,6.30 to 7.00
"Cc1ccc(CN(C(=O)Nc2ccc(Cl)cc2)c2ccnn2C)o1 [Compound 220, 3-(4-chlorophenyl)-1-[(5-methyl-2-furyl)methyl]-1-(2-methylpyrazol-3-yl)urea]",pIC50,IDO1 enzyme,< 4.52
same,pIC50,SK-OV-3 cells,< 5.30
CC#Cc1ccc(NC(=O)N(Cc2ccc(C)o2)C2CCCC2)cc1 [Compound 154],pIC50,IDO1 enzyme,< 4.52
same,pIC50,SK-OV-3 cells,> 7.00
same,pIC50,TDO2 enzyme,< 4.52
"Cc1ccc(CN(C(=O)Nc2ccc(F)c(O)c2)C2CCCC2)o1 [Compound 104, 1-cyclopentyl-3-(4-fluoro-3-hydroxy-phenyl)-1-[(5-methyl-2-furyl)methyl]urea]",pIC50,SK-OV-3 cells,< 5.30
same,pIC50,TDO2 enzyme,< 4.52
"N#Cc1ccc(NC(=O)N(Cc2ccc3ncsc3c2)C2CCC2)cc1 [Compound 213, 1-(1,3-benzothiazol-6-ylmethyl)-3-(4-cyanophenyl)-1-cyclobutyl-urea]",pIC50,IDO1 enzyme,< 4.52
same,pIC50,SK-OV-3 cells,> 7.00
"O=C(Nc1ccccc1)N(Cc1ccncc1)C1CCCC1 [Compound 74, 1-cyclopentyl-3-phenyl-1-(4-pyridylmethyl)urea]",pIC50,SK-OV-3 cells,< 5.30
same,pIC50,TDO2 enzyme,< 4.52
"Cc1ccc(CN(C(=O)Nc2ccc(Cl)nc2)C2CCCC2)o1 [Compound 92, 3-(6-chloro-3-pyridyl)-1-cyclopentyl-1-[(5-methyl-2-furyl)methyl]urea]",pIC50,SK-OV-3 cells,> 7.00
same,pIC50,TDO2 enzyme,< 4.52
"O=C(Nc1ccc(Cl)cc1)N(Cc1cc2ccccc2o1)C1CCCC1 [Compound 130, 1-(benzofuran-2-ylmethyl)-3-(4-chlorophenyl)-1-cyclopentyl-urea]",pIC50,SK-OV-3 cells,> 7.00
same,pIC50,TDO2 enzyme,< 4.52
"CCc1ccc(NC(=O)N(Cc2cccs2)C2CCCC2)cc1 [Compound 3, 1-cyclopentyl-3-(4-ethylphenyl)-1-(2-thienylmethyl)urea]",pIC50,IDO1 enzyme,< 4.52
same,pIC50,SK-OV-3 cells,6.30 to 7.00
same,pIC50,TDO2 enzyme,< 4.52
"Cc1ccc(CN(C(=O)Nc2ccc(C#N)cc2)c2cnoc2C)o1 [Compound 257, 3-(4-cyanophenyl)-1-[(5-methyl-2-furyl)methyl]-1-(5-methylisoxazol-4-yl)urea]",pIC50,IDO1 enzyme,< 4.52
same,pIC50,SK-OV-3 cells,> 7.00
"CCc1ccc(NC(=O)N(Cc2ccccn2)C2CCCCC2)cc1 [Compound 21, 1-cyclohexyl-3-(4-ethylphenyl)-1-(2-pyridylmethyl)urea]",pIC50,SK-OV-3 cells,5.30 to 6.00
same,pIC50,TDO2 enzyme,< 4.52
"Cc1ccc(CN(C(=O)Nc2ccc(Cl)cc2)c2cnoc2C)o1 [Compound 256, 3-(4-chlorophenyl)-1-[(5-methyl-2-furyl)methyl]-1-(5-methylisoxazol-4-yl)urea]",pIC50,IDO1 enzyme,< 4.52
same,pIC50,SK-OV-3 cells,> 7.00
"Cc1ccc(CN(C(=O)Nc2ccc(N3CCOCC3)cc2)C2CCCC2)o1 [Compound 123, 1-cyclopentyl-1-[(5-methyl-2-furyl)methyl]-3-(4-morpholinophenyl)urea]",pIC50,SK-OV-3 cells,< 5.30
same,pIC50,TDO2 enzyme,< 4.52
"COCC#Cc1ccc(NC(=O)N(Cc2ccc(C)o2)c2cnoc2C)cc1 [Compound 279, 3-[4-(3-methoxyprop-1-ynyl)phenyl]-1-[(5-methyl-2-furyl)methyl]-1-(5-methylisoxazol-4-yl)urea]",pIC50,IDO1 enzyme,< 4.52
same,pIC50,SK-OV-3 cells,> 7.00
"COCC#Cc1ccc(NC(=O)N(Cc2ccc(C)o2)C2CCCC2)cc1 [Compound 162, 1-cyclopentyl-3-[4-(3-methoxyprop-1-ynyl)phenyl]-1-[(5-methyl-2-furyl)methyl]urea]",pIC50,IDO1 enzyme,< 4.52
same,pIC50,SK-OV-3 cells,> 7.00
same,pIC50,TDO2 enzyme,< 4.52

# Reference: US20210238139A1, “MODULATORS OF TRYPTOPHAN CATABOLISM” (E-Therapeutics PLC, priority 2018, published 2021)
